The values below come from article PMC5329948, “Caspase vinyl sulfone small molecule inhibitors prevent axonal degeneration in human neurons and reverse cognitive impairment in Caspase-6-overexpressing mice” (Molecular Neurodegeneration, 2017).

This test deals with T1, Casp6 in Casp6-transfected HCT116 cells (Homo sapiens, UniProt P55212).
T1 construct: The mammalian constructs encoding human Casp6p20p10 in the pCep4β vector; expressed in transfected cells; host or cells: HCT116 human colon carcinoma cells
T1 sequence (P55212 24-179): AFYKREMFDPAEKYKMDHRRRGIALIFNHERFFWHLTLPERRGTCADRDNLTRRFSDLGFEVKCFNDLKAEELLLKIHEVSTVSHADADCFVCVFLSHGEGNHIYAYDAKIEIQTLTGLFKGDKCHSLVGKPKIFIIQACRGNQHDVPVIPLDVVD
T1 sequence (P55212 194-293): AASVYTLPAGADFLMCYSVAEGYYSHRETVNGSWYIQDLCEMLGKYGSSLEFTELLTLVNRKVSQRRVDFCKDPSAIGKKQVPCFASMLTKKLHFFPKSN
The experiment in a line: Casp6 VEIDase activity in extracts of Casp6p20p10-transfected HCT116 cells treated with inhibitor. The format is cell-based. Conditions: for Casp6 activity rise within 15 min of inhibitor removal / activity at 100 µM: 100 μM for 2 h, mean ± SEM; for Casp6 activity rise within 15 min of inhibitor removal: then fresh media 15 min; for decrease of Casp6 VEIDase activity within 15 min of treatment / decrease of Casp6 activity: 100 μM, Casp6-transfected HCT116; for decrease of Casp6 activity: 2 h; for activity at 100 µM: HCT-116, then fresh media 2 h, % of initial activity, read-out: Casp6 activity recovered 2 h after inhibitor removal; for IC50: cells treated for 2 h, read-out: IC50 on Casp6 activity in pCep4β-Casp6p20p10-transfected HCT116 cells. How it is done:
HCT116: Human colon carcinoma (HCT116) cells (ATCC, Manassas, VA, USA) were cultured in McCoy’s 5A modified media (Thermo Fisher Scientific, Waltham, MA, USA) supplemented with 10% fetal bovine serum (Thermo Fisher Scientific, Waltham, MA, USA) and transfected with 1 μg of pCep4βCasp6p20p10 mixed with 8 μg of polyethyleneimine (Polysciences Inc., Warrington, PA, USA). Protein expression was allowed for 24 h before treating with vehicle (PBS), 100 μM NWL-117, or 100 μM NWL-154 for 2 h. For NWL inhibitor kinetic experiments, 100 μM of NWL-117 or NWL-154 was added at 120, 90, 60, 30, 15, or 0 min before harvest. […] For recovery time course experiments, after the initial treatment with 100 μM of NWL-117 or −154 for 2 h, the media was replaced with fresh media for 120, 90, 60, 30, 15, or 0 min before harvest. Primary Human CNS neurons: Cortical tissues were obtained from the Birth Defects Research Laboratory (BDRL, University of Washington, Seattle, USA) in accordance with NIH ethical guidelines approved by McGill University’s institutional review board and primary neurons cultured as previously described. Primary human neurons were seeded on poly-L-lysine-coated (5 μg/mL) 6-well plates or glass coverslips coated with poly-L-lysine and laminin (5 μg/mL) (Sigma-Aldrich, Oakville, ON, CA) at a density of 3x10^6 cells/mL. Primary human neurons were pre-treated with 0.1 μM epoxomicin (Enzo LifeSciences, Farmingdale, NY, USA) and 100 μM NWL-117, 100 μM NWL-154, or vehicle (PBS) for 2 h, and serum-deprived for 2 h in the presence of epoxomicin and vehicle (PBS), 100 μM NWL-117, or 100 μM NWL-154 before harvesting or measuring caspase activity with FLICA, as described below.
Recombinant or extracted cellular Casp6 activity: Casp6 activity was assessed by in vitro fluorogenic assays using Ac-Val-Glu-Ile-Asp-(7-Amino-4-trifluoromethylcouramin) (Ac-VEID-AFC: Enzo LifeSciences, NY, USA) as the Casp6 substrate. The activity was measured in Stennicke’s buffer (SB) (20 mM piperazine-N, N-bis (2-ethanesulfonic acid) (PIPES: BioShop Canada Inc, Burlington, Ontario, CA) pH 7.2, 30 mM NaCl, 1 mM ethylenediaminetetraacetic acid (EDTA), 0.1% 3-[(3-cholamidopropyl)-dimethylammonio]-2-hydroxy-1-propanesulfonic acid (CHAPS), 10% sucrose). The reaction mix consisted of either 20 nM RCasp6 or 20–30 μg cellular protein extracts, SB, 10 mM DTT, 10 μM VEID-AFC substrate and deionized water. The activity was measured in a black clear bottom 96-well plate (Costar, Corning, NY, USA) at 50 μL/well in triplicate at 37 °C in the Synergy H4 plate reader (BioTek) at excitation 380 nm and emission 505 nm every two minutes for 100 min. Fluorescence units were converted to the moles of AFC released based on a standard curve of 0–625 picomoles of free AFC. Cleavage rates were calculated from the linear phase of the assay. The activity is considered on a percentage scale where no inhibitor present is equated to 100% activity of the enzyme. Cellular Casp6 activity assay by FLICA: Active Casp6 was labeled within primary human neurons using the fluorescent inhibitor of Casp6 (FLICA) (FAM-VEID-fmk, ImmunoChemistry, Bloomington, MN, USA) following the manufacturer’s protocol. Briefly, FLICA reagent and Hoechst 33342 were added to a black clear bottom 96-well plate containing 100,000 of the treated-primary human neurons for 2 h at 37 °C in 5% CO2. The cells were rinsed twice with wash buffer and fresh media was added to the cells. The fluorescence of FAM-VEID-fmk was measured at 490 nm excitation and 520 nm emission with bandwidth reduced to 8 nm in the Synergy H4 plate reader (BioTek). The Hoechst signal was measured by excitation at 360 nm and emission at 485 nm.
The half-maximal inhibitory concentrations (IC50) for NWL inhibitors (Patent publication # WO/2009/140765, WO/2010/133000, and WO/2012/140500) was determined by incubating 0 to 20 μM NWL-117 and NWL-154 with 20 nM of active site-titrated Casp6 in SB at room temperature for 5 minutes. […]

SMILES strings stand for the structures.

With `CCC(C)[C@H](NC(=O)[C@H](CCC(=O)O)NC(=O)[C@@H](NC(=O)OCc1ccccc1)C(C)C)C(=O)N[C@H](/C=C/S(C)(=O)=O)CC(=O)O` (stereo partly shown) [NWL-117], the “Casp6 activity rise within 15 min of inhibitor removal” value amounted to 43%, the “decrease of Casp6 VEIDase activity within 15 min of treatment” value is given as 88%, the “decrease of Casp6 activity” value is 80% and the activity at 100 µM was 85%. Also, the IC50 was found to be 4.82 µM.
For `CCC(C)[C@H](NC(=O)[C@H](CCC(=O)O)NC(=O)[C@@H](NC(=O)OCc1ccccc1)C(C)C)C(=O)N[C@H](/C=C(\Cl)S(C)(=O)=O)CC(=O)O` (stereo partly shown) [NWL-154], in that order: 21%, 95%, 96%, 30% and 3.63 µM.
